Results on five compounds are retold here after patent publication US20120232062A1, “AZAINDAZOLES TO TREAT FLAVIVIRIDAE VIRUS INFECTION” (EIGER BIOPHARMACEUTICALS, INC., priority 2009, published 2012).

The structures appear in SMILES notation.

Data set [1] is described as follows: Liver microsome stability, rat. The format is in vitro ADME, Sprague Dawley rat.
Data set [2] is described as follows: Liver microsome stability, human. The conditions noted are these: for liver stability predicted by in vitro PK profiles: human vs rat liver, in words. Format: in vitro ADME.
A short description of data set [3]: Caco-2 permeability testing. Format: in vitro ADME, human. As to conditions: human; for efflux ratio at 90 min, 10 µM: pH 7.4, Caco-2, Papp (B-A)/Papp (A-B), read-out: Efflux/Permeability ratio (desired <3); for Papp A→B at 90 min, 10 µM: Caco-2, pH 7.4, Caco-2, A-B, read-out: Permeability (second figure of Efflux/permeability), Papp (A-B); for Papp B→A at 90 min, 10 µM: Caco-2, pH 7.4, Caco-2, B-A, read-out: Efflux (first figure of Efflux/permeability), Papp (B-A). Summed up:
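Caco-2 monolayers grown 21-27 days in MEM + 10% FBS + 1% NEAA; bidirectional transport (A-B, B-A) in HBSS with 25 mM HEPES, pH 7.4, 10 μM compound donor with 5 μM Lucifer Yellow as monolayer marker. Papp measured each direction, quantified against standard curve with internal standard; efflux ratio Papp(B-A)/Papp(A-B).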

Data set [4] is described as follows: Liver microsome stability, mouse. Format: in vitro ADME, CD-1 mouse.

For `Cn1nc(C(=O)NC2CCN(CCN3CCCC3)CC2)c2ccc(N3CCCCCC3)nc21` [EBP1597], the “rat liver microsome (RLM), % parent remaining” value is recorded as 57 % parent remaining in data set [1] (after 15 min), 24 % parent remaining in data set [1] (after 30 min) and 15 % parent remaining in data set [1] (after 60 min). Also, the “human liver microsome (HLM, % parent remaining)” value in data set [2] (after 15 min) is on record as 81 % parent remaining; in data set [2] (after 30 min), 74 % parent remaining; in data set [2] (after 60 min) it was 57 % parent remaining. Further, the “liver stability predicted by in vitro PK profiles” value in data set [2] is given as “higher stability in human liver vs rat liver”. Moreover, the efflux ratio at 90 min, 10 µM in data set [3] was 0.8. Further, the results for the “mouse liver microsome (MLM), % parent remaining” value in data set [4] (after 15 min), in data set [4] (after 30 min) and in data set [4] (after 60 min) were 67 % parent remaining, 32 % parent remaining and 14 % parent remaining, respectively.
On to `CCC(CC)Oc1ccc2c(C(=O)NC3CCNCC3)n[nH]c2n1` [compound 726], for which the “rat liver microsome (RLM), % parent remaining” value in data set [1] (after 15 min) was 83 % parent remaining; in data set [1] (after 30 min), 69 % parent remaining; in data set [1] (after 60 min) it was 53 % parent remaining. The “human liver microsome (HLM, % parent remaining)” value in data set [2] (after 15 min) is given as 86 % parent remaining; in data set [2] (after 30 min), 81 % parent remaining; in data set [2] (after 60 min), 65 % parent remaining. For the same compound, in data set [3], the Papp A→B at 90 min, 10 µM amounted to 3.5 ×10⁻⁶ cm/s. In addition, the Papp B→A at 90 min, 10 µM in data set [3] was determined as 41 ×10⁻⁶ cm/s. The “mouse liver microsome (MLM), % parent remaining” value in data set [4] (after 15 min) came to 99 % parent remaining; in data set [4] (after 30 min), 96 % parent remaining; in data set [4] (after 60 min), 86 % parent remaining.
In the case of `Cn1nc(C(=O)NC2CCN(CC(F)F)CC2)c2ccc(N3CCCCCC3)nc21` [compound 1110], the “rat liver microsome (RLM), % parent remaining” value in data set [1] (after 15 min) was 10 % parent remaining; in data set [1] (after 30 min), 0.5 % parent remaining; in data set [1] (after 60 min), 0.5 % parent remaining. The “human liver microsome (HLM, % parent remaining)” value in data set [2] (after 15 min) is on record as 8 % parent remaining; in data set [2] (after 30 min), 0.4 % parent remaining; in data set [2] (after 60 min), 0.4 % parent remaining. Further, in data set [3], the Papp A→B at 90 min, 10 µM amounted to 13.8 ×10⁻⁶ cm/s. In addition, the Papp B→A at 90 min, 10 µM in data set [3] came to 10.1 ×10⁻⁶ cm/s. The “mouse liver microsome (MLM), % parent remaining” value in data set [4] (after 15 min) amounted to 15 % parent remaining; in data set [4] (after 30 min) it was 1 % parent remaining; in data set [4] (after 60 min), 0.4 % parent remaining.
As to `Cn1nc(CCCN2CCCCC2CO)c2ccc(N3CCCCCCC3)nc21` (stereo not drawn) [compound 1456], the “rat liver microsome (RLM), % parent remaining” value in data set [1] (after 15 min) came to 3.9 % parent remaining; in data set [1] (after 30 min), 0.4 % parent remaining; in data set [1] (after 60 min), 0.2 % parent remaining. Further, the results for the “human liver microsome (HLM, % parent remaining)” value in data set [2] (after 15 min), in data set [2] (after 30 min) and in data set [2] (after 60 min) were 28 % parent remaining, 6 % parent remaining and 0.7 % parent remaining, respectively. Further, the Papp A→B at 90 min, 10 µM in data set [3] was determined as 15 ×10⁻⁶ cm/s. Also, the Papp B→A at 90 min, 10 µM in data set [3] turned out to be 15 ×10⁻⁶ cm/s. Also, the entries for the “mouse liver microsome (MLM), % parent remaining” value in data set [4] (after 15 min), in data set [4] (after 30 min) and in data set [4] (after 60 min) were 1.7 % parent remaining, 0.9 % parent remaining and 0.3 % parent remaining, respectively.
Turning to `CC(C)N1CCC(NC(=O)c2nn(C)c3nc(N4CCCCCC4)ccc23)CC1` [EBP1604], the “rat liver microsome (RLM), % parent remaining” value in data set [1] (after 15 min) amounted to 58 % parent remaining; in data set [1] (after 30 min), 41 % parent remaining; in data set [1] (after 60 min), 14 % parent remaining. Besides, the “human liver microsome (HLM, % parent remaining)” value amounted to 71 % parent remaining in data set [2] (after 15 min), 63 % parent remaining in data set [2] (after 30 min) and 28 % parent remaining in data set [2] (after 60 min). For the same compound, in data set [2], the “liver stability predicted by in vitro PK profiles” value is given as “higher stability in human liver vs rat liver”. Moreover, the Papp A→B at 90 min, 10 µM in data set [3] came out at 12 ×10⁻⁶ cm/s. Further, the Papp B→A at 90 min, 10 µM in data set [3] was 9 ×10⁻⁶ cm/s. Further, in data set [3], the efflux ratio at 90 min, 10 µM was determined as 0.8. Also, the “mouse liver microsome (MLM), % parent remaining” value in data set [4] (after 15 min) is recorded as 57 % parent remaining; in data set [4] (after 30 min), 40 % parent remaining; in data set [4] (after 60 min) it was 14 % parent remaining.
